Results published in patent US20210261539A1, “COMPOUND HAVING BET INHIBITORY ACTIVITY AND PREPARATION METHOD AND USE THEREFOR” (Shanghai Haihe Pharmaceutical Co., Ltd., priority 2018, published 2021).

Target: T1, BRD4 BD1 (Homo sapiens, UniProt O60885)
T1 construct: Protein BRD4 BD1 used in the assay was purchased from Active Motif (cat. 31380); purchased Active Motif 31380
Assay: HTRF in vitro enzyme activity assay, inhibition of BRD4 BD1 binding to acetylated H4 peptide
Details: IC50 values of the compounds against BRD4 BD1 binding; class symbols A/B/C
Protocol: Effect Examples: In Vitro Enzyme Activity Assay
Half inhibitory activity (IC50) of the compounds of the invention against the bromodomain protein BRD4 BD1 was determined in the present Examples.
The compounds of the invention were tested for inhibitory activity against BRD4 BD1 with Homogeneous Time-Resolved Fluorescence (HTRF).
2. Reagents, Consumable Materials and Instruments:
Protein BRD4 BD1 used in the assay was purchased from Active Motif (cat. 31380); streptavidin XL-665 (#610SAXLA) and EPIgeneous Binding Domain Kit A (#62BDAPEG) were both purchased from Cisbio Bioassays; [Lys(5,8,12,16)Ac] H4(1-21)-biotin (#64989), [Lys(5,8,12,16)Ac]H4(1-25) were available from Anaspec; OTX015 and ABBV-075 were purchased from Selleckchem Co. The 384-well ProxiPlate (#6008280) was purchased from Perkinelmer Co. The Laboratory microplate reader (Envision 2104) was available from PerkinElmer Co. The water used in the assay was Millipore-Q pure water.
3. Formulation of the Compound
10 mM DMSO stock solution of the test compound was diluted to 1 mM in DMSO, and then diluted 10-fold in Binding Domain dilution buffer (purchased from Cisbio Bioassays) for use (DMSO concentration in the final system was 0.1%), including 5 concentrations in 1:5 gradient.
4. Assay Protocol: 1 Batch, 2 Repeats
1) 5 μL of test compound was transferred to 45 μL Binding Domain dilution buffer.
2) 2 μL of 1× compound (4 μL Binding Domain dilution buffer: positive control; 6 μL enzyme buffer (purchased from Cisbio Bioassays): negative control) was transferred to a reaction plate.
3) 4 μL of 5×BRD 4(1) was added to the reaction plate (30 nM in the final system).
4) 4 μL of 5×[Lys(5,8,12,16)Ac] H4(1-21)-biotin was added to the reaction plate, and the plate was covered with a film and incubated at 37° C. for 30 min.
5) A detection mixture of SA-XL665 (2×) and anti-H3K9me0-Eu(K) (2×) was prepared in detection buffer (purchased from Cisbio Bioassays).
6) 10 μL of detection mixture (2×) was added to each well, incubated at RT for 3 h. The mp value was read by microplate reader Envision with the following parameters: […]

SMILES | IC50 [nM]
C[C@H]1Oc2nc(N3C(=O)c4ccccc4C3c3ccc(F)nc3)ncc2N(C)C1=O (single isomer, unassigned) [Example A105-P1] | 10 to 100
CC1Oc2cc(N3C(=O)c4ccccc4C3c3cccnc3)cc(F)c2N(C)C1=O (single isomer, unassigned) [Example A107-P3, 1-methyl-3-methyl-6-(1-oxo-3-(pyridin-3-yl)isoindolin-2-yl)-8-fluoro-1H-benzo[2,3-B][1,4]oxazin-2(3H)-one] | 10 to 100
C[C@H]1Oc2nc(N3C(=O)c4ccccc4C3c3ccc(F)cn3)ccc2N(C)C1=O (single isomer, unassigned) [Example A110-P1] | ≤ 10
C[C@H]1Oc2nc(N3C(=O)c4ccccc4C3c3ccc(F)nc3)ccc2N(C)C1=O (single isomer, unassigned) [Example A111-P1] | ≤ 10
Cc1ccc(C2c3ccccc3C(=O)N2c2ccc3c(n2)O[C@H](C)C(=O)N3C)cn1 (single isomer, unassigned) [Example A112-P1] | ≤ 10
Cc1ccc(C2c3ccccc3C(=O)N2c2cc3c(cn2)N(C)C(=O)[C@@H](C)O3)cn1 (single isomer, unassigned) [Example A113-P1] | 100 to 1000
C[C@H]1Oc2nc(N3C(=O)c4sccc4C3c3cccnc3)ccc2N(C)C1=O (single isomer, unassigned) [Example A115-P1] | ≤ 10
C[C@H]1Oc2nc(N3C(=O)c4c(cccc4C(C)(C)O)C3c3ccc(F)cc3)ccc2N(C)C1=O (single isomer, unassigned) [Example A119-P1] | ≤ 10
CC1Oc2nc(N3C(=O)c4ccccc4C3c3ccc(F)cc3)ccc2N(CC(F)(F)F)C1=O (single isomer, unassigned) [Example A120-P1, 6-(1-(4-fluorophenyl)-3-oxoisoindol-2-yl)-3-methyl-1-(2,2,2-trifluoroethyl)-1H-pyrido[2,3-B][1,4]oxazin-2(3H)-one] | 100 to 1000
C[C@H]1Oc2nc(N3C(=O)c4ccccc4C3c3ccccn3)ccc2N(C)C1=O (single isomer, unassigned) [Example A121-P1] | ≤ 10
C[C@H]1Oc2nc(N3C(=O)c4ccccc4C3c3ccc(Cl)nc3)ccc2N(C)C1=O (single isomer, unassigned) [Example A122-P1] | 10 to 100
C[C@H]1Oc2cc(N3C(=O)c4ccccc4C3c3cccnc3)ncc2N(C)C1=O (single isomer, unassigned) [Example A123-P2] | 100 to 1000
C[C@H]1Oc2nc(N3C(=O)c4ccccc4C3c3cccnc3)c(F)cc2N(C)C1=O (single isomer, unassigned) [Example A124-P1] | 10 to 100
C[C@H]1Oc2cc(N3C(=O)c4ccccc4C3c3ccc(F)nc3)ncc2N(C)C1=O (single isomer, unassigned) [Example A125-P1] | 100 to 1000
C[C@H]1Oc2nc(N3C(=O)c4ccccc4C3c3ccc(F)nc3)c(F)cc2N(C)C1=O (single isomer, unassigned) [Example A126-P1] | 10 to 100
C[C@H]1Oc2nc(N3C(=O)c4c(cccc4[S+](C)[O-])C3c3cccnc3)ccc2N(C)C1=O (single isomer, unassigned) [Example A127-P1] | ≤ 10
C[C@H]1Oc2nc(N3C(=O)c4c(cccc4S(C)(=O)=O)C3c3cccnc3)ccc2N(C)C1=O (single isomer, unassigned) [Example A128-P1] | 10 to 100
C[C@H]1Oc2nc(N3C(=O)c4c([S+](C)[O-])cccc4C3(O)c3cccnc3)ccc2N(C)C1=O (single isomer, unassigned) [Example A129-P3] | 10 to 100

Further lines, results first:

IC50 [nM] | SMILES
≤ 10 | COC(=O)c1cccc2c1C(=O)N(c1ccc3c(n1)N(C1CC1)C(C)C(=O)N3C)C2c1ccc(F)cc1 (single isomer, unassigned) [Example A80-P3, Methyl 2-(4-cyclopropyl-1,3-dimethyl-2-oxo-1,2,3,4-tetrahydropyrido[2,3-b]pyrazin-6-yl)-1-(4-fluorophenyl)-3-oxoisoindoline-4-carboxylate]
≤ 10 | CC1C(=O)N(C)c2ccc(N3C(=O)c4c(C(=O)O)cccc4C3c3ccc(F)cc3)nc2N1C1CC1 (single isomer, unassigned) [Example A81-P4]
≤ 10 | CC1C(=O)N(C)c2ccc(N3C(=O)c4c(C(=O)N5CCN(C)CC5)cccc4C3c3ccc(F)cc3)nc2N1C1CC1 (single isomer, unassigned) [Example A82-P4]
≤ 10 | CNC(=O)c1cccc2c1C(=O)N(c1ccc3c(n1)N(C1CC1)C(C)C(=O)N3C)C2c1cccnc1 (single isomer, unassigned) [Example A83-P3]
≤ 10 | COC(=O)c1cccc2c1C(=O)N(c1ccc3c(n1)N(C1CC1)C(C)C(=O)N3C)C2c1cccnc1 (single isomer, unassigned) [Example A84-P4, Methyl 2-(4-cyclopropyl-1,3-dimethyl-2-oxo-1,2,3,4-tetrahydropyrido[2,3-b]pyrazin-6-yl)-3-oxo-1-(pyridin-3-yl)isoindoline-4-carboxylate]
≤ 10 | CNC(=O)c1cccc2c1C(=O)N(c1ccc3c(n1)N(C)C(C)C(=O)N3C)C2c1ccccc1 (single isomer, unassigned) [Example A88-P4, N-methyl-3-oxo-1-phenyl-2-(1,3,4-trimethyl-2-oxo-1,2,3,4-tetrahydropyrido[2,3-b]pyrazin-6-yl)isoindoline-4-carboxamide]
≤ 10 | C[C@@H]1C(=O)N(C)c2cnc(N3C(=O)c4ccccc4C3c3ccc(F)nc3)nc2N1C (single isomer, unassigned) [Example A91-P2]
≤ 10 | CC1C(=O)N(C)c2cnc(N3C(=O)c4ccccc4C3c3ccccc3)nc2N1C1CC1 (single isomer, unassigned) [Example A92-P4, 8-cyclopropyl-5,7-dimethyl-2-(1-oxo-3-phenylisoindolin-2-yl)-7,8-dihydropteridin-6(5H)-one]
≤ 10 | CC1C(=O)N(C)c2cnc(N3C(=O)c4ccccc4C3c3ccc(C(F)(F)F)cc3)nc2N1C1CC1 (single isomer, unassigned) [Example A93-P4, 8-cyclopropyl-5,7-dimethyl-2-(1-oxo-3-(4-(trifluoromethyl)phenyl)isoindolin-2-yl)-7,8-dihydropteridin-6(5H)-one]
≤ 10 | C[C@@H]1C(=O)N(C)c2cnc(N3C(=O)c4c(cccc4C(C)(C)O)C3c3ccc(F)cc3)nc2N1C (single isomer, unassigned) [Example A96-P1]
≤ 10 | C[C@@H]1C(=O)N(C)c2cnc(N3C(=O)c4cc(F)ccc4C3c3cccnc3)nc2N1C (single isomer, unassigned) [Example A97-P1]
≤ 10 | CC1C(=O)N(C)c2cnc(N3C(=O)c4ccccc4C3c3cccnc3)nc2N1C1CC1 (single isomer, unassigned) [Example A98-P3, 8-cyclopropyl-5,7-dimethyl-2-(1-oxo-3-(pyridin-3-yl)isoindolin-2-yl)-7,8-dihydropteridin-6(5H)-one]
≤ 10 | CC1C(=O)N(C)c2cnc(N3C(=O)c4ccccc4C3c3ccc(F)nc3)nc2N1C1CC1 (single isomer, unassigned) [Example A101-P3, 8-cyclopropyl-2-(1-(6-fluoropyridin-3-yl)-3-oxoisoindol-2-yl)-5,7-dimethyl-7,8-dihydropteridin-6(5H)-one]
